Results on five compounds are retold here after patent publication EP0320984A2, “1,4-Dihydropyridine derivatives” (FUJIREBIO INC., priority 1987, dated 1989).

For assay [1], the system named is Thoracic aortas. Briefly: Inhibitory activity on KCl-induced contraction of aorta (helical strips of thoracic aorta). The arrangement: species or system male rabbits. The conditions noted are these: 10^-6M, 60min after addition; 30 mM KCl, rabbit aorta strips, 37°C. How it is done: 2. Experiment for inhibitory activity on KCl-induced contraction of aorta: Thoracic aortas were isolated from male rabbits and cut into helical strips. The preparations were mounted vertically in organ baths containing 30 ml of Krebs- Henseleit solution. […] Test and reference compounds were added to the bath 30 minutes after KCl treatment.

In assay [2] the test system is Rabbit platelet rich plasma (PRP). Briefly: Inhibitory activity on platelet aggregation in rabbit platelet rich plasma (light transmission). The class given is cell-based. The conditions noted are these: added to PRP 30 minutes before agent; for Inhibitory activity on platelet aggregation, PAF: compound 3x10^-6 (unit not given), Platelet activating factor (PAF) 10 mg/ml; for Inhibitory activity on platelet aggregation, ADP / Inhibitory activity on platelet aggregation, AA / Inhibitory activity on platelet aggregation, Collagen: compound 10^-4 (unit not given); for Inhibitory activity on platelet aggregation, ADP: Adenosine diphosphate (ADP) 5 mM; for Inhibitory activity on platelet aggregation, AA: Arachidonic acid (AA) 1 mM; for Inhibitory activity on platelet aggregation, Collagen: aggregating agent collagen. How it is done: 3. Experiment for inhibitory activity on platelet aggregation in rabbit:
Rabbit platelet rich plasma (PRP) was prepared by centrifugation of the citrated blood at 380 g for 10 minutes at 20°C. Test solution (10 µl) was added to PRP (200 µl) 30 minutes before treatment of aggregation agents (10 µl). The extent of aggregation was expressed with the maximum change in light transmission for PRP and platelet poor plasma was taken as a value of 100%

Each structure is given as a SMILES string.

Regarding `C/C=C/C=C/COC(=O)C1=C(C)NC(C)=C(C(=O)OC/C=C/c2ccc(Cn3ccnc3)cc2)C1c1cccc([N+](=O)[O-])c1` (stereo not shown) [Example 15, (E)-2,(E)-4-hexadien-1-yl (E)-3-{4-(1-imidazolylmethyl)phenyl}2-propen-1-yl 1,4-dihydro-2,6-dimethyl-4-(3-nitrophenyl)pyridine-3,5-dicarboxylate], the “Inhibitory effect on KCl-induced contraction” value (from here on “Inhibitory effect”) in assay [1] is given as 21.6%. In assay [2], the “Inhibitory activity on platelet aggregation, PAF” value (“Inhibitory activity … PAF” below) is 74.1%; the “Inhibitory activity on platelet aggregation, ADP” value (shortened to “Inhibitory activity … ADP”) is recorded as 8.8%; the “Inhibitory activity on platelet aggregation, AA” value (“Inhibitory activity … AA” for short) is 30.2%; the “Inhibitory activity on platelet aggregation, Collagen” value (shortened to “Inhibitory activity … Collagen”) is 10.5%.

For the compound `COC(=O)C1=C(C)NC(C)=C(C(=O)OC/C=C/C=C/c2ccc(Cn3ccnc3)cc2)C1c1cccc([N+](=O)[O-])c1` (stereo not shown) [Example 19, 5-{4-(1-imidazolylmethyl)phenyl}-(E)-2,(E)-4-pentadien-1-yl methyl 1,4-dihydro-2,6-dimethyl-4-(3-nitrophenyl)pyridine-3,5-dicarboxylate], the “Inhibitory effect” value in assay [1] stood at 68.8%. Further, in assay [2], the “Inhibitory activity … PAF” value amounted to 41.5%; the “Inhibitory activity … ADP” value was 17.2%; the “Inhibitory activity … AA” value was 35.5%; the “Inhibitory activity … Collagen” value was 66.3%.

Take `COC(=O)C1=C(C)NC(C)=C(C(=O)OC/C=C/c2ccc(C(C)n3ccnc3)cc2)C1c1cccc([N+](=O)[O-])c1` (stereo not shown) [Example 24, (E)-3-{4-{1-(1-imidazolyl)ethyl}phenyl}-2-propen-1-yl methyl 1,4-dihydro-2,6-dimethyl-4-(3-nitrophenyl)pyridine-3,5-dicarboxylate]: the “Inhibitory effect” value in assay [1] was determined as 74.3%. In addition, in assay [2], the “Inhibitory activity … PAF” value is recorded as 18.3%; the “Inhibitory activity … ADP” value is listed as 7.8%; the “Inhibitory activity … AA” value is on record as 28.2%; the “Inhibitory activity … Collagen” value is 27.5%.

Regarding `COC(=O)C1=C(C)NC(C)=C(C(=O)OCCN(C)Cc2ccccc2)C1c1cccc([N+](=O)[O-])c1.Cl` (stereo not shown) [NICARDIPINE, 1,4-dihydro-2,6-dimethyl-4-(3-nitrophenyl)pyridine-3,5-dicarboxylic acid-3-[2-(N-benzyl-N-methylamino)ethyl]ester-5-methyl ester hydrochloride, reference compound], in assay [1], the “Inhibitory effect” value is given as 91.1%. Also, in assay [2], the “Inhibitory activity … ADP” value amounted to 6.9% and the “Inhibitory activity … Collagen” value turned out to be 3.6%.

For `COC(=O)C1=C(C)NC(C)=C(C(=O)OC)C1c1ccccc1[N+](=O)[O-]` [NIFEDIPINE, 1,4-dihydro-2,6-dimethyl-4-(2-nitrophenyl)pyridine-3,5-dicarboxylic acid dimethyl ester, reference compound], the “Inhibitory effect” value in assay [1] is on record as 87.6%. Also, in assay [2], the “Inhibitory activity … ADP” value was found to be 0%; the “Inhibitory activity … AA” value is listed as 0.2%; the “Inhibitory activity … Collagen” value was determined as 5.1%.
